Patent US10786475B2, “Method for preventing, treating, or improving fatty liver by administering effective amounts of azelaic acid to a subject” (Korea University Research and Business Foundation, priority 2018, dated 2020)

Legend:
Olfr544 = assay: p-CREB/CREB western blotting in Hepa1c1c-7 cells, normal and Olfr544 knockdown; assay type: cell-based, mouse
Text: To more clearly confirm whether an AzA acts as an Olfr544 ligand, an Olfr544 knockdown cell line was constructed using a vector including shRNA, and protein expression levels of normal cells and knockdown cells were compared by performing an experiment as follows. To construct an Olfr544 knockdown cell line, particularly, an oligonucleotide (top strand [SEQ ID NO: 1]: 5′-[…]-ACAGTGAG-3′) encoding an Olfr544-targeted shRNA hairpin sequence or an oligonucleotide (top strand [SEQ ID NO: 2]: 5′-[…]-3′) encoding non-targeting scrambled shRNA hairpins were inserted into an shRNA cloning site of a pENTR/U6 vector using a BLOCK-iT U6 RNAi entry vector kit (Invitrogen). Subsequently, Hepa1c1c-7 or 3T3-L1 cells were seeded on a 6-well plate and transfected with 2.5 μg of Olfr544 shRNA or scrambled shRNA using 10 μL Lipofectamine 2000 (Invitrogen) for 48 hours, thereby constructing an Olfr544 knockdown cell line. […]
To confirm whether an Olfr544 protein was expressed, protein fractions (cell membrane protein, cytosol protein) and total proteins (whole protein extract), which were extracted by the method of Example 2-3, were quantified by a Bradford method. […] The expression level of each gene was standardized using β-actin or GAPDH expression, and the comparison of the contents of protein bands of western blots was quantified and digitized using software (Gel-Pro Analyzer 4.0). […]

Olfr544 KO mouse = assay: Fatty liver inhibitory effect in high-fat diet Olfr544 KO mouse; assay type: in vivo
Method: Mice used in the example, which were an eight-week-old C57BL/6J model, were purchased from Samtako, and Olfr544 KO mice were manufactured by Macrogen based on the C57BL/6J model using a CRISPR/Cas9 system. All experiments performed in the example are compliant to a protocol approved by the Animal Experiment Ethics Committee at Korea University (Protocol No. KUIACUC-20170322-1). The mice were acclimated at 21 to 25° C. under a 50 to 60% relative humidity condition for 12 hours before being used in the experiments, and a total of 18 mice were treated with an AzA diluted with distilled water at 50 mg/kg of body weight and distilled water as a control through oral administration for 6 weeks. The mice used in the experiments were fed a high-fat diet containing 60% fat (D12492, Research Diets, Inc) to induce fatty liver, and then a body weight was measured every week. […] An oxygen consumption amount (VO2) and a carbon dioxide production amount (VCO2) were analyzed using an Oxylet Physiocage System (Panlab/Harvard apparatus, Cornella, Spain) and suiteMETABOLISM (V2.2.01, Panlab) software. A respiratory quotient (RQ) was calculated using the formula VCO2/VO2, and energy expenditure was analyzed using the formula EE=VO2×1.11×(3.815+1.232×RQ). The oxidation of a free fatty acid was calculated using the formula (1.6946×VO2)−(1.7012×VCO2). An AzA (100 mg/kg) was intraperitoneally administered, and then concentration of a glycerol, which is a body fat decomposition marker, was measured. […] To measure glucose resistance and insulin resistance, a glucose and insulin resistance test was performed under a condition, in which glucose ([…]) and insulin (0.35 unit/kg/bw) are administered to a mouse.

ob/ob mouse = assay: Fatty liver inhibitory effect in ob/ob mouse; assay type: in vivo; settings: 60% high-fat diet, AzA 50 mg/kg oral, 6 weeks
Method: A 7-week-old male fatty liver model ob/ob mouse was purchased from Central Laboratory Animal Inc. to be used in an experiment. An AzA was orally administered at 50 mg/kg of body weight along with a 60% high-fat diet (HFD) for 6 weeks. As the experiment progresses, body weight was measured once a week, and food intake was measured […] on the last week. The concentration of triglycerides in liver tissue was measured by homogenizing liver tissue of a mouse in 600 μL of acetone (Daejung, Korea), storing the homogenate at 4° C. for 24 hours, and obtaining a fat part by centrifugation at 12000 rpm for 10 minutes. The fat part was dried, dissolved in 95% ethanol, quantified using a Cobas C11 autoanalyzer (Roche, Basel, Switzerland) and normalized with a liver weight. A fatty acid oxidation rate was measured and analyzed by the method of Example 4-4 described above.

[1] = Olfr544 KO mouse, HFD and AzA for 6 weeks

## O=C(O)CCCCCCCC(=O)O [AzA, nonanedioic acid]
Olfr544; Hepa1c1c-7 cells with Olfr544 knockdown by shRNA transfection
  increase in p-CREB/CREB ratio: not observed
Olfr544; Hepa1c1c-7 cells, AzA-treated group
  p-CREB/CREB ratio: significantly increased
Olfr544 KO mouse; KO mouse
  glucose resistance (glucose resistance test): not observed
  insulin resistance (insulin resistance test): not observed
Olfr544 KO mouse; KO mouse, AzA 50 mg/kg/day
  abdominal fat (microCT): no such effects
  total fat amount (microCT): no such effects
Olfr544 KO mouse; KO mouse, AzA 100 mg/kg intraperitoneally
  blood glycerol concentration (body fat decomposition marker): no effect
Olfr544 KO mouse; [1]
  oxidation of free fatty acids (indirect calorimetric analysis): these effects were not shown
  respiratory quotient (indirect calorimetric analysis): these effects were not shown
ob/ob mouse
  expression of PPARα and a target gene thereof (Hmgcs2) in liver tissue: significantly increased
  triglyceride concentration in liver tissue: reduced
ob/ob mouse; compared with control group
  body weight: decreased
